Results reported in patent publication US12441722B2, “Therapeutic agents and methods of treatment” (University of Florida Research Foundation, Incorporated, priority 2020, dated 2025).

Legend:
[1] = test system: MOLT-4; assay: Cell viability assay (tetrazolium-based MTS) in MOLT4 cells; details: 48 h incubation
Procedure: Cancer cells from acute lymphoblastic leukemia (MOLT4) were incubated with increasing concentrations of compounds of Examples 1-9 for 48 h. Cell viability was measured by tetrazolium-based MTS assay. 5×10^4 to 1×10^5 suspension cells or 3×10^3 to 5×10^3 adherent cells were seeded and treated in 96-well plates for 48 h. The EC50 values of individual agents were calculated with GraphPad Prism.

[2] = test system: MOLT4 cells; assay: Protein degradation assay in MOLT4 cells (western blot); format: cell-based; details: MOLT4 cells incubated with various concentrations; the FIGURE
Procedure: MOLT4 cells and human platelets can be incubated with increasing concentrations of test compounds for 16 h. The cells can be harvested and lysed in RIPA lysis buffer supplemented with protease and phosphatase inhibitor cocktails. An equal amount of protein (20 μg/lane) can be resolved on a pre-cast 4-20% SDS-PAGE gel. Proteins can be subsequently transferred to NOVEX PVDF membranes by electrophoresis. The membranes can be blocked in blocking buffer (5% non-fat dry milk in TBS-T), and can be incubated with primary antibodies (at optimized concentrations) overnight at 4° C. After washing in TBS-T, the membranes can be incubated with an appropriate HRP-conjugated secondary antibody for 1 h at room temperature. After extensive washing, the proteins of interest can be detected with ECL western blotting detection reagents and recorded with autoradiography (Pierce Biotech, Rockford, IL, USA). The primary antibodies for Bcl-xL (Cat #2762), Bcl-2 (Cat #2872), Mcl-1 (Cat #5453) and β-actin (Cat #4970) can be purchased from Cell Signaling technology. The relative band intensity can be measured using ImageJ software and normalized to b-actin. The DC50 (concentration with 50% degradation) can be calculated using GraphPad Prism.

SMILES	EC50 ([1]; Homo sapiens, MOLT-4, MOLT4 acute lymphoblastic leukemia cells) [nM]	protein degradation (western blot) [2]	EC50 ([1]; MOLT4 acute lymphoblastic leukemia cells) [nM]
Cc1c(-c2ccc(N3CCc4cccc(C(=O)Nc5nc6ccccc6s5)c4C3)nc2C(=O)NCCOCCOCCOCCNc2cccc3c2C(=O)N(C2CCC(=O)NC2=O)C3=O)cnn1CC12CC3CC(CC(C3)C1)C2 (stereo not drawn) [degrader #8, 2-(5-(1-(adamantan-1-ylmethyl)-5-methyl-1H-pyrazol-4-yl)-6-((2-(2-(2-(2-((2-(2,6-dioxopiperidin-3-yl)-1,3-dioxoisoindolin-4-yl)amino)ethoxy)ethoxy)ethoxy)ethyl)carbamoyl)pyridin-2-yl)-N-(benzo[d]thiazol-2-yl)-1,2,3,4-tetrahydroisoquinoline-8-carboxamide]	< 10	protein degradation	–
Cc1ncsc1-c1ccc([C@H](C)NC(=O)[C@@H]2C[C@@H](O)CN2C(=O)[C@@H](NC(=O)CCCCCCNC(=O)C23CC4CC(CC(Cn5ncc(-c6ccc(N7CCc8cccc(C(=O)Nc9nc%10ccccc%10s9)c8C7)nc6C(=O)O)c5C)(C4)C2)C3)C(C)(C)C)cc1 [degrader #43, 6-(8-(benzo[d]thiazol-2-ylcarbamoyl)-3,4-dihydroisoquinolin-2(1H)-yl)-3-(1-(((1S,3r)-3-((7-(((S)-1-((2S,4R)-4-hydroxy-2-(((S)-1-(4-(4-methylthiazol-5-yl)phenyl)ethyl)carbamoyl)pyrrolidin-1-yl)-3,3-dimethyl-1-oxobutan-2-yl)amino)-7-oxoheptyl)carbamoyl)adamantan-1-yl)methyl)-5-methyl-1H-pyrazol-4-yl)picolinic acid]	–	–	100 to 1000
